The values below come from patent US20200276256A1, “SKIN CARE COMPOSITION” (ISN Pharma SP.Z.O.O., priority 2017, published 2020).

In data set [1] the test system is HaCaT cell line infected with HHV-1. Briefly: Cell Count Assay (NucleoCounter NC-3000), HHV-1 infected cells. It is filed as cell-based, human. Conditions: Control + acyclovir, HHV-1 infected HaCaT. The protocol:
Next, cell viability additionally in the presence of the Herpes virus was investigated with a Cell Count Assay (NucleoCounter NC-3000). An HHV-1 suspension was added to HaCaT cell line and incubated for 1 hour to enable adsorption of virus to cells; the cells were then incubated with the extract, in the respective dilution ratios, for 24 hrs.

For data set [2], the system named is HHV-1. Briefly: Confocal microscopy, direct immunofluorescence staining of infected HaCaT cells. The conditions noted are these: acyclovir added to infected HaCaT; 48 hrs after infection; FIG. 19. Format: cell-based, Human herpesvirus 1. An excerpt:
Confocal microscopy (microscope magnification—60×, digital zoom) was used to view the cell structure status and positioning 48 hrs after infection with HHV-1 (FIG. 18). The method of direct immunofluorescence staining wherein the nucleus—blue (A), viral antigen —green (B), actin—red (C), nucleus/actin (D) helps further understand the structural changes in the cells. The same confocal microscopy technique was used to view the cell structure status and positioning after HHV-1 infection and treatment with Kalanchoe daigremontiana. As before the method of direct immunofluorescence staining is nucleus—blue (A), viral antigen—green (B), actin—red (C), nucleus/actin (D).

Data set [3] has as its system HaCaT cell line infected with HHV-1. Put plainly: Vitality VB-48 Assay, HHV-1 infected cells. Conditions: Control + acyclovir, mean. It is filed as cell-based, human. On the procedure: Vitality VB-48 Assay (NucleoCounter NC-3000) was used to determine the percentage estimation of keratinocytes of varied degrees of viability after 24 h incubation with Kalanchoe daigremontiana extract.
An HHV-1 suspension was added to HaCaT cell line and incubated for 1 hour to enable adsorption of virus to cells. Afterwards, the cells were incubated with a plant extract of the respective dilution for 24 hrs to assess the viability of the keratinocytes with HHV-1 incubated with the respective dilutions of the extract of the invention as compared with Acyclovir.

On to `Nc1nc2c(ncn2COCCO)c(=O)[nH]1` [acyclovir], for which, in data set [1], the “All cells Cell %” value is 79.67%, the “All cells Mean intensity” value is given as 160070.3, the “All cells Number of cells” value was determined as 7648 and the “Dead cells Cell %” value is reported as 24.05%. Besides, in data set [1], the “Dead cells Mean intensity” value is on record as 152872.9, the “Dead cells Number of cells” value is recorded as 5683 and the “Viability [%]” value was found to be 25.7%. For the same molecule, the “Viability [%]” value in data set [1] (listed as Acyclovir) was determined as 25%. The “amount of viral antigen” value in data set [2] is on record as “lower amount of viral antigen”. Moreover, in data set [3], the dead cells % is listed as 77.1%, the healthy cells % is listed as 3.27% and the “lower viability cells %” value turned out to be 19.51%.
